Consider one compound from publication PMC7108740, “Exploring the molecular structures that confer ligand selectivity for galanin type II and III receptors” (PLoS ONE, 2020).

Common to all, as to assay type: cell-based
Experiment [1] deals with T1, GALR3 single mutant A^191F (Homo sapiens, UniProt O60755, A191F).
T1 construct: expressed in transfected cells; host or cells: HEK293 cells stably expressing Gqi
Nature of the experiment: SRE-luc luciferase assay, GALR3 A191F. As to conditions: GALR3 A^191F; SRE-luc in HEK293 Gqi cells, ligand 6 h; mean ± S.E.; SEM. An excerpt:
(§1) For domain swapping between GALR2 and GALR3, individual cDNA fragments of interest were amplified by polymerase chain reaction (PCR) with Pfu polymerase (ELPIS Biotech, Daejeon, Korea) and two specific primers, one corresponding to the 5' or 3' end of the GALR2 or GALR3 cDNA and the other to the region of overlap between the two receptors. The two resulting fragments, one from GALR2 and the other from GALR3, were subjected to a second round of PCR to generate the chimeric cDNAs. To construct single, double-, triple-, pentuple-, hextuple-, and septuple-mutant receptors, amino acids of GALR3 were substituted for the amino acids at the corresponding positions in GALR2 using PCR-based site-directed mutagenesis. All of the chimeric constructs were cloned into the pcDNA3 expression vector at HindⅢ and XbaⅠ sites. The DNA sequences of the chimeras were verified by automatic sequencing. […] The luciferase activity in 50 μl cell extract was determined using a luciferase assay system according to the standard protocol for the Synergy 2 Multi-Mode Microplate Reader (BioTek, Winooski, VT, USA). […] The concentrations of agonists that induced half-maximal stimulation (EC50) were calculated using the GraphPad PRISM5 software (GraphPad software, Inc., San Diego, CA). […]

Experiment [2] has as its target T2, GALR3 single mutant F^265P (Homo sapiens, UniProt O60755).
T2 construct: expressed in transfected cells; host or cells: HEK293 cells stably expressing Gqi
Nature of the experiment: SRE-luc luciferase assay, GALR3 F265P. As to conditions: GALR3 F^265P; SRE-luc in HEK293 Gqi cells, ligand 6 h; mean ± S.E.
From the text: as §1

The target of experiment [3] is T3, GALR3 single mutant S^266T (Homo sapiens, UniProt O60755, S266T).
T3 construct: expressed in transfected cells; host or cells: HEK293 cells stably expressing Gqi
T3 sequence (O60755 whole entry S266T): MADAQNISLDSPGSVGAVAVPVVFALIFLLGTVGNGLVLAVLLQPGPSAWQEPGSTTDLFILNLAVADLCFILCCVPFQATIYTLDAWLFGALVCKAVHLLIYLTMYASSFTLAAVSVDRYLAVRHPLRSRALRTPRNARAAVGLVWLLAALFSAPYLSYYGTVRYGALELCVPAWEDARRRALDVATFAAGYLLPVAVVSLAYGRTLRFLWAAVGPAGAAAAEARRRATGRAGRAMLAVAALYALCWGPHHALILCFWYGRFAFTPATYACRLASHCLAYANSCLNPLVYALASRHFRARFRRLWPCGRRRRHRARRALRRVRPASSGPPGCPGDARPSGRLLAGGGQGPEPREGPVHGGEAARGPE
Nature of the experiment: SRE-luc luciferase assay, GALR3 S266T. As to conditions: GALR3 S^266T; SRE-luc in HEK293 Gqi cells, ligand 6 h; mean ± S.E.; SEM.
From the text: as §1

The structures appear in SMILES notation.

T1 sequence (O60755 whole entry A191F): as the sequence (O60755 whole entry S266T) above, with A191F, T266S counted along it
T2 sequence (O60755 whole entry F265L): as the sequence (O60755 whole entry S266T) above, with F265L, T266S counted along it

By EC50 is commonly meant the concentration needed to bring the measured effect to its halfway point. For the compound `CSCC[C@H](NC(=O)[C@H](C)NC(=O)[C@H](CCC(N)=O)NC(=O)[C@@H]1CCCN1C(=O)[C@@H](NC(=O)[C@H](Cc1c[nH]c2ccccc12)NC(=O)[C@@H](N)CC(N)=O)[C@@H](C)O)C(=O)N[C@@H](CC(C)C)C(=O)N[C@@H](Cc1ccc(O)cc1)C(=O)N[C@@H](CC(C)C)C(=O)N[C@@H](CCCCN)C(=O)NCC(=O)N[C@@H](C)C(=O)N[C@@H](CCC(N)=O)C(N)=O` [SPX, reference compound], the EC50 in experiment [1] is 91.2 ± 31 nM; in experiment [2] it was over 1000 nM; in experiment [3], 38 ± 10.5 nM.
